Data published in paper PMC2803436 (Current Chemical Genomics, 2008).
Non-standard residues stand in square brackets, D forms with d. Residues, ends and D or L forms follow the SMILES beside them. Nle = CCCC[C@H](N)C(=O)O

Experiments:
TEV protease [1] = target: T1, TEV protease (Tobacco etch virus, UniProt P04517); assay: Protein fusion; format: biochemical; conditions: tested from 0 – 0.1 mM
T1 sequence (P04517 2038-2279): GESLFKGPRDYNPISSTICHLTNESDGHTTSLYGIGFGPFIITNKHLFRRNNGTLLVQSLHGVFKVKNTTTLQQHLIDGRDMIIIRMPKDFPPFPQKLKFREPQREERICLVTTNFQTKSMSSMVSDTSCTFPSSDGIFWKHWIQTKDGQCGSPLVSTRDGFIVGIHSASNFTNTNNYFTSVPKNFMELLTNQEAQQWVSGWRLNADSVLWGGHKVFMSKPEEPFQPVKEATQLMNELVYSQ

TEV protease [2] = target: T1, TEV protease; assay: CP234-Luc/ENLYFQC verification assay; conditions: SCH HBr and L-DOPA tested from 0 – 1 mM; NF-023 and ATA from 0 – 0.2 mM
TEV protease [3] = assay: Initial tests of established inhibitors on TEV protease; format: biochemical, Tobacco Etch Virus; conditions: for Inhibition of TEV protease by known inhibitors of cysteine proteases: data not shown
TEV protease [4] = target: T1, TEV protease; assay: LOPAC1280 library screen using the CP234-Luc/ENLYFQC protease assay; format: biochemical; conditions: compounds at 100 µM, 15 minutes at room temperature

| Molecule | Inhibition of TEV protease cleavage in re-test, CP234-Luc/ENLYFQC assay (TEV protease [2]) | Inhibition of TEV protease by known inhibitors of cysteine proteases (TEV protease [3]) | further results |
| --- | --- | --- | --- |
| Br.CN=c1nc(-c2ccccc2)n(-c2ccccc2)s1 [SCH HBr, N-(2,3-diphenyl-1,2,4-thiadiazol-5-(2H)-ylidene)methanamine hydrobromide] | did not inhibit | – | Inhibition of TEV protease cleavage in re-test, protein fusion cleavage assay (TEV protease [1]): did not inhibit |
| [Zn] [zinc] | – | – | Inhibition of TEV protease (TEV protease [3]; 5 mM, also frequently precipitated the proteins out of solution): effectively inhibited |
| 2,5-dihydroxy-DL-tyrosine [L-DOPA] | did not inhibit | – | Inhibition of TEV protease cleavage in re-test, protein fusion cleavage assay (TEV protease [1]): did not inhibit |
| CCCC[C@@H](C=O)NC(=O)[C@H](CC(C)C)NC(=O)[C@H](CC(C)C)NC(C)=O [ALLN, N-acetyl-Leu-Leu-NIe-CHO] (Ac-Leu-Leu-[Nle]-aldehyde) | – | resistant | – |
| CCOC(=O)[C@H]1O[C@@H]1C(=O)N[C@@H](CC(C)C)C(=O)NCCC(C)C (relative stereo) [EST, (2S,3S)-trans-Epoxysuccinyl-L-leucylamido-3-methylbutane Ethyl Ester] | – | resistant | – |
| CC(C)C[C@H](NC(=O)[C@H]1O[C@@H]1C(=O)O)C(=O)NCCCCN=C(N)N [E-64] | – | resistant | – |
| O=C(O)C1=CC(=C(c2ccc(O)c(C(=O)O)c2)c2ccc(O)c(C(=O)O)c2)C=CC1=O [ATA, aurintricarboxylic acid] | confirmed | – | TEV protease inhibition (cleavage of CP234-Luc/ENLYFQC) in primary screen (TEV protease [4]): greater than 60% |
